Results on one molecule are retold here after patent publication US20130072505A1, “6,9-Disubstituted Purine Derivatives and Their Use for Treating Skin” (priority 2006, published 2013).

A value given as a limit tells only on which side of the number the result lay.

Data set [1] has as its system senescent human skin fibroblasts. The experiment in a line: treatment of senescent human skin fibroblasts (cell number, actin staining, morphology). The class given is cell-based. Here is the method: The effect of 6-furfurylamino-9-(2-tetrahydropyranyl)purine on senescent cells was also examined. An equal number of senescent cells were seeded in separate flasks and then treated with different concentrations of 6-furfurylamino-9-(2-tetrahydropyranyl)purine (0 to 400 μM). Cell numbers were determined after 7 and 14 days of treatment using a Coulter counter after trypsinisation and resuspension of the cells.
Late passage senescent cells with a life span of more than 95% were also treated with different concentrations of 6-furfurylamino-9-(2-tetrahydropyranyl)purine (0 to 200 μM) to assess age-related changes. The actin staining patterns were examined after three days. […] Less polymerized and diffused patterns of actin staining are generally associated with youthful characteristics of human fibroblasts. Thus, 6-furfurylamino-9-(2-tetrahydropyranyl)purine appears to revert some of the age-related changes in actin organization in senescent cells.
Senescent human skin fibroblasts were also treated with 6-furfurylamino-9-(2-tetrahydropyranyl)purine (0 to 400 μM) and evaluated for reversion of age-related changes. There were significant differences in the appearance of the cells after 7 and 30 days of treatment. […] Even at higher concentrations (200 and 400 μM), the 6-furfurylamino-9-(2-tetrahydropyranyl)purine-treated cells appeared to be smaller and have less intracellular debris as compared untreated cells.

Data set [2] has as its system Rat C6 glioma (ATCC No. CCL107). The experiment in a line: anti-inflammatory activity: isoproterenol-induced intracellular cAMP synthesis. The data set is classed as cell-based. Particulars: cAMP after 30 min with (−)-isoproterenol. Here is the method:
Anti-inflammatory activity of several of the 6,9-disubstituted purine derivatives of this invention was determined; kinetin was also evaluated as a control. Rat C6 glioma (ATCC No. CCL107) was cultivated in monolayer in serum-free chemically defined medium containing Ham's F10/minimal essential medium (1:1 v/v), 2 mM L-glutamine, 1% (v/v) minimal essential medium vitamins (100×), 1% (v/v) minimal essential medium nonessential amino acids (100×), 100 U/ml penicillin, […], and 30 nM sodium selenite. Incubation was performed at 37° C. in a humidified atmosphere. The assays were performed in the logaritmic growth phase at a density of 2.5×10^5 cells/cm^2. Intracellular cAMP synthesis was induced by addition of 5 mM (−)-isoproterenol; various amounts of test compounds were added at the same time as the (−)-isoproterenol. After 30 min incubation at 37° C., the medium was removed and the cellular amount of cAMP was determined using the cAMP-enzyme immunoassay kit from Amersham. The I50 value was determined from a dose-response curve in duplicate.

The test system of data set [3] is Chinese hamster ovary (CHO) cells. The experiment in a line: In Vitro Chromosome Aberration Screening Assay. The class given is cell-based. Particulars: 0.272 to 272 μg/ml; absence and presence of S9. Here is the method:
6-Furfurylamino-9-(2-tetrahydropyranyl)purine was tested in the chromosome aberration screening assay using Chinese hamster ovary (CHO) cells in both the absence and presence of an Acroclor-induced S9 activation system to evaluate its clastogenic potential. DMSO was used as the solvent and the dose rate ranged from 0.272 to 272 μg/ml.

For data set [4], the system named is chorioallantoic membrane of White Leghorn eggs. The data set can be described thus: Chorioallantoic Membrane Vascular Assay (ocular irritation). The method, then: The chorioallantoic membrane of White Leghorn eggs, incubated for 14 days, were dosed with 40 μl of the test compound (and three lower concentrations in distilled water) and then further incubated for about 30 minutes at which time the chorioallantoic membrane was examined for vascular hemorrhage, capillary injection, and/or the presence of ghost vessels.

Data set [5] has as its system Female SKH-1 hairless mice. The data set can be described thus: topical skin anti-aging treatment, hairless mouse model. The data set is classed as in vivo. Particulars: 3 weeks. The text has this: The safety and efficacy of the 6,9-disubstituted purine derivatives of this invention as topical skin anti-aging treatments were examined using the hairless mouse model (a well established model for studying the treatments of photoaging). Female SKH-1 hairless mice (5 weeks old, 20-25 grams, Charles River Laboratories, Wilmington, Mass.) were individually housed in filter-top cages, and acclimated for 5-7 days after delivery. […] Water and mouse chow are provided ad libitum. The experimental groups (6 mice per group) included the following treatments: (1) Untreated control; (2) Vehicle control (MillCreek Lotion); […] The various treatments were applied daily (Monday-Friday) for 3 weeks to the dorsal skin (about 2 cm×2 cm) of the hairless mice at a dosage rate of about 20 mg. At baseline (prior to the 1st treatment), and weekly, the dorsal skin was measured for transepidermal water loss (TEWL), skin moisture content, and skin elasticity. […] This instrument was equipped with dual probes which are placed on the skin surface and a quantitative measurement taken of the respective parameters and the measurements recorded on an integrated computer. […] The slides were weakly counter stained in Mayer's hematoxylin and scored under a light microscope for the number of BrdU-positive cells per mm of epidermis for each section. […]

In data set [6] the test system is Salmonella typhimurium histidien auxotrophs TA98 and TA100. The data set can be described thus: Ames Test. The class given is cell-based. Particulars: 2.5 to 5000 μg/plate; presence and absence of rat liver S9. Here is the method: Tests were carried out using DMSO as solvent and dose levels of 6-furfurylamino-9-(2-tetrahydropyranyl)purine at 2.5, 5.0, 15, 50, 500, 1500, and 5000 μg/plate based upon standard protocol and procedures (Ames et al., Mutation Research, 31, 347-364 (1975); Maron et al., Mutation Research, 113, 173-215 (1983)).

As for `c1coc(CNc2ncnc3c2ncn3C2CCCCO2)c1` (stereo not shown) [6-furfurylamino-9-(2-tetrahydropyranyl)purine], the “cell number of senescent cells” value is given as “No negative effects” in data set [1] (0 to 400 μM, after 7 days) and “no negative effects” in data set [1] (lower concentrations (below 200 μM), after 14 days). In data set [1] (0 to 400 μM, after 30 days of treatment), the “appearance of the cells (reversion of age-related changes)” value is “younger looking in terms of becoming thinner and arranged in arrays”. The “survival of senescent cells” value in data set [1] (200 μM or more, after 14 days) is on record as “slight negative effect on the survival of senescent cells”. Further, in data set [1] (late passage senescent cells, 0 to 200 μM, after three days), the actin staining pattern result was “changed the actin staining pattern from a highly polymerized pattern to a less polymerized filament pattern”. In addition, the IC50 in data set [2] (Rattus norvegicus, C6 glioma, 0.5 h, read-out: Anti-inflammatory Activity I50) amounted to 13 µM. For the same molecule, the “Anti-inflammatory Activity Effect” value in data set [2] is recorded as “Inhibition”. For the same molecule, the “induction of structural and numerical chromosome aberrations” value in data set [3] was “negative for the induction of structural and numerical chromosome aberrations”. For the same molecule, in data set [4], the ocular irritation classification result is listed as “non-irritant”. Also, the “RC50 (calculated concentration producing a positive reaction in 50% of treated eggs)” value in data set [4] (about 30 minutes, <1% irritant, >3% non-irritant) is 105%. In data set [5] (topical daily (Monday-Friday), Grade 0=no response to Grade 6=necrosis), the “erythema (irritation) score” value is recorded as < 1 Grade. Moreover, the “Skin Moisture Content (skin conductance)” value in data set [5] (topical daily) is given as “one of the highest increases in skin moisture”. In data set [6], the mutagenic responses result is on record as “no positive mutagenic responses”.
